This note sets out measurements from the supplement of paper PMC10307832.

Common to all, as to test: relative viability (nuclei count vs DMSO), 5 days (fraction); higher = more cells survive
Compound in test [1]: CS(=O)(=O)c1ccc(-c2cnc(N)c(C(=O)Nc3ccccc3)n2)cc1 [VE-821] + Cc1nc(NC(=O)N2CCC[C@H]2C(N)=O)sc1-c1ccnc(C(C)(C)C(F)(F)F)c1 [Alpelisib] (partner 2 µM)
In a few lines: (§1)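 Relative viability divides the nuclei count in treated wells by that in vehicle wells. Lung cancer cell lines were seeded in 1536-well plates, dosed by pin tool the next day, and fixed and stained after 5 days in one step with final 0.05% Triton X-100, 1% formaldehyde and 1 ug/ml Hoechst. Dosing was a single drug or a fixed anchor-drug dose plus five library-drug doses (not always all listed) in √10 steps, and values are medians of duplicate plates imaged at 4×.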

Compound in test [2]: CS(=O)(=O)c1ccc(C(=O)Nc2ccc(Cl)c(-c3ccccn3)c2)c(Cl)c1 [Vismodegib] + C[C@@H](Oc1cc(-c2cnn(C3CCNCC3)c2)cnc1N)c1c(Cl)ccc(F)c1Cl [Crizotinib] (partner 1 µM)
In a few lines:
as §1

Compound in test [3]: CS(=O)(=O)c1ccc(C(=O)Nc2ccc(Cl)c(-c3ccccn3)c2)c(Cl)c1 [Vismodegib] + Cc1nc(NC(=O)N2CCC[C@H]2C(N)=O)sc1-c1ccnc(C(C)(C)C(F)(F)F)c1 [Alpelisib] (partner 2 µM)
In a few lines: as §1

Compound in test [4]: N#CC[C@H](C1CCCC1)n1cc(-c2ncnc3[nH]ccc23)cn1 [Ruxolitinib] + Cc1nc(NC(=O)N2CCC[C@H]2C(N)=O)sc1-c1ccnc(C(C)(C)C(F)(F)F)c1 [Alpelisib] (partner 2 µM)
In a few lines:
as §1

On to NCI-H1792, for which the relative viability in test [1] (first compound 0.08 µM) is 0.846; in test [1] (first compound 0.253 µM), 0.919; in test [1] (first compound 0.8 µM), 0.584; in test [1] (first compound 2.53 µM) it was 0.587; in test [1] (first compound 8 µM) it was 0.681; in test [2] (first compound 0.08 µM) it was 0.93. For the same cell line, the relative viability was 0.939 in test [2] (first compound 0.253 µM); 0.976 in test [2] (first compound 0.8 µM); 0.986 in test [2] (first compound 2.53 µM); 0.907 in test [2] (first compound 8 µM); 0.608 in test [3] (first compound 0.08 µM); 0.687 in test [3] (first compound 0.253 µM). Also, the relative viability was found to be 0.615 in test [3] (first compound 0.8 µM); 0.667 in test [3] (first compound 2.53 µM); 0.647 in test [3] (first compound 8 µM); 0.652 in test [4] (first compound 0.08 µM); 0.687 in test [4] (first compound 0.253 µM); 0.651 in test [4] (first compound 0.8 µM). In addition, the relative viability is 0.515 in test [4] (first compound 2.53 µM) and 0.714 in test [4] (first compound 8 µM).

Take NCI-H1915: the relative viability worked out at 1.13 in test [1] (first compound 0.08 µM); 1.03 in test [1] (first compound 0.253 µM); 1.06 in test [1] (first compound 0.8 µM); 1.16 in test [1] (first compound 2.53 µM); 0.941 in test [1] (first compound 8 µM); 0.903 in test [2] (first compound 0.08 µM). Further, the relative viability was 0.874 in test [2] (first compound 0.253 µM); 0.877 in test [2] (first compound 0.8 µM); 0.866 in test [2] (first compound 2.53 µM); 0.965 in test [2] (first compound 8 µM); 0.996 in test [3] (first compound 0.08 µM); 1.09 in test [3] (first compound 0.253 µM). Besides, the relative viability in test [3] (first compound 0.8 µM) came out at 1.07; in test [3] (first compound 2.53 µM), 1.03; in test [3] (first compound 8 µM), 1.12; in test [4] (first compound 0.08 µM), 1.06; in test [4] (first compound 0.253 µM), 1.04; in test [4] (first compound 0.8 µM), 1.11. The results for the relative viability in test [4] (first compound 2.53 µM) and in test [4] (first compound 8 µM) were 1.04 and 0.966, respectively.

With NCI-H1944, the relative viability is 0.954 in test [1] (first compound 0.08 µM); 0.804 in test [1] (first compound 0.253 µM); 0.53 in test [1] (first compound 0.8 µM); 0.885 in test [1] (first compound 2.53 µM); 0.452 in test [1] (first compound 8 µM); 0.993 in test [2] (first compound 0.08 µM). Also, the relative viability in test [2] (first compound 0.253 µM) worked out at 1.22; in test [2] (first compound 0.8 µM), 1.08; in test [2] (first compound 2.53 µM), 1.05; in test [2] (first compound 8 µM) it was 1.08; in test [3] (first compound 0.08 µM) it was 0.768; in test [3] (first compound 0.253 µM), 0.862. Moreover, the relative viability in test [3] (first compound 0.8 µM) was 0.744; in test [3] (first compound 2.53 µM), 0.809; in test [3] (first compound 8 µM), 0.777; in test [4] (first compound 0.08 µM), 0.777; in test [4] (first compound 0.253 µM) it was 0.689; in test [4] (first compound 0.8 µM), 0.863. For the same cell line, the values for the relative viability in test [4] (first compound 2.53 µM) and in test [4] (first compound 8 µM) were 0.782 and 0.753, respectively.

As for NCI-H1975, the relative viability in test [1] (first compound 0.08 µM) turned out to be 0.621; in test [1] (first compound 0.253 µM) it was 0.598; in test [1] (first compound 0.8 µM), 0.46; in test [1] (first compound 2.53 µM), 0.534; in test [1] (first compound 8 µM), 0.406; in test [2] (first compound 0.08 µM), 0.953. Besides, the relative viability was 0.957 in test [2] (first compound 0.253 µM); 0.945 in test [2] (first compound 0.8 µM); 0.826 in test [2] (first compound 2.53 µM); 0.94 in test [2] (first compound 8 µM); 0.621 in test [3] (first compound 0.08 µM); 0.649 in test [3] (first compound 0.253 µM). Moreover, the relative viability in test [3] (first compound 0.8 µM) amounted to 0.617; in test [3] (first compound 2.53 µM) it was 0.611; in test [3] (first compound 8 µM) it was 0.721; in test [4] (first compound 0.08 µM), 0.663; in test [4] (first compound 0.253 µM), 0.559; in test [4] (first compound 0.8 µM), 0.587. Further, the relative viability in test [4] (first compound 2.53 µM) stood at 0.482; in test [4] (first compound 8 µM) it was 0.338.

As for NCI-H1993, the relative viability in test [1] (first compound 0.08 µM) turned out to be 0.704; in test [1] (first compound 0.253 µM), 0.757; in test [1] (first compound 0.8 µM), 0.655; in test [1] (first compound 2.53 µM), 0.702; in test [1] (first compound 8 µM), 0.633; in test [2] (first compound 0.08 µM) it was 0.995. Further, the relative viability in test [2] (first compound 0.253 µM) came out at 0.958; in test [2] (first compound 0.8 µM), 0.768; in test [2] (first compound 2.53 µM) it was 0.851; in test [2] (first compound 8 µM), 0.906; in test [3] (first compound 0.08 µM), 0.684; in test [3] (first compound 0.253 µM), 0.655. Moreover, the relative viability worked out at 0.713 in test [3] (first compound 0.8 µM); 0.687 in test [3] (first compound 2.53 µM); 0.629 in test [3] (first compound 8 µM); 0.705 in test [4] (first compound 0.08 µM); 0.71 in test [4] (first compound 0.253 µM); 0.678 in test [4] (first compound 0.8 µM). In addition, the values for the relative viability in test [4] (first compound 2.53 µM) and in test [4] (first compound 8 µM) were 0.722 and 0.675, respectively.

For the cell line NCI-H2009, the relative viability in test [1] (first compound 0.08 µM) came to 1.11; in test [1] (first compound 0.253 µM), 1.18; in test [1] (first compound 0.8 µM) it was 1.12; in test [1] (first compound 2.53 µM), 1.19; in test [1] (first compound 8 µM), 1.28; in test [2] (first compound 0.08 µM) it was 0.94. For the same cell line, the relative viability is 1.05 in test [2] (first compound 0.253 µM); 1.13 in test [2] (first compound 0.8 µM); 1.01 in test [2] (first compound 2.53 µM); 1.12 in test [2] (first compound 8 µM); 1.12 in test [3] (first compound 0.08 µM); 1.14 in test [3] (first compound 0.253 µM). Further, the relative viability in test [3] (first compound 0.8 µM) was determined as 1.19; in test [3] (first compound 2.53 µM), 1.11; in test [3] (first compound 8 µM), 1.22; in test [4] (first compound 0.08 µM) it was 1.11; in test [4] (first compound 0.253 µM), 1.17; in test [4] (first compound 0.8 µM), 1.12. Moreover, the relative viability in test [4] (first compound 2.53 µM) was 1.01; in test [4] (first compound 8 µM), 0.903.

Regarding NCI-H2023, the relative viability was determined as 0.748 in test [1] (first compound 0.08 µM); 0.588 in test [1] (first compound 0.253 µM); 0.295 in test [1] (first compound 0.8 µM); 0.547 in test [1] (first compound 2.53 µM); 0.372 in test [1] (first compound 8 µM); 0.586 in test [2] (first compound 0.08 µM). The relative viability was 0.56 in test [2] (first compound 0.253 µM); 0.707 in test [2] (first compound 0.8 µM); 0.615 in test [2] (first compound 2.53 µM); 0.685 in test [2] (first compound 8 µM); 0.584 in test [3] (first compound 0.08 µM); 0.534 in test [3] (first compound 0.253 µM). In addition, the relative viability in test [3] (first compound 0.8 µM) came out at 0.626; in test [3] (first compound 2.53 µM), 0.546; in test [3] (first compound 8 µM) it was 0.495; in test [4] (first compound 0.08 µM) it was 0.617; in test [4] (first compound 0.253 µM), 0.56; in test [4] (first compound 0.8 µM), 0.595. In addition, the values for the relative viability in test [4] (first compound 2.53 µM) and in test [4] (first compound 8 µM) were 0.489 and 0.6, respectively.
